Read-outs that look alike come from different tables or passages of the source. A value given as a limit tells only on which side of the number the result lay.

Consider 3 molecules from patent US20220177476A1, “Crystal Forms of (S)-4-(8-amino-3-(1-(but-2-ynoyl)-pyrrolidin-2-yl)imidazo[1,5-a]pyrazin-1-yl)-n-(pyridin-2-yl)benzamide” (Acerta Pharma B.V., priority 2015, published 2022).

The nature of series [1]: Aqueous solubility after equilibrating at 25° C. for three days (HPLC). As to conditions: water, equilibrated at 25° C. for three days, HPLC of filtered solution. The format is physicochemical. How it is done: Finally, Form II was tested with respect to solubilities in various water-solvent mixtures and non-aqueous solvents. […] High-performance liquid chromatography (HPLC) was used to determine the concentration of Form II in the filtered solution at approximately 14 μg/mL, which translates into a critical water activity (aw) of about 0.59.

The nature of series [2]: Dynamic vapor sorption (DVS). It counts as physicochemical. The following applies: DVS. How it is done:
A gravimetric vapor sorption study was run using a standard procedure. Samples were run using a dynamic vapor sorption (DVS) analyzer. Sample sizes were approximately 10 mg. A moisture adsorption-desorption isotherm was performed as outlined below.

Series [3] can be described thus: Intrinsic dissolution rate (paddle over stationary disc). It counts as physicochemical. How it is done: The intrinsic dissolution rate (IDR) was measured for Forms I and II of the free base of Formula (1). IDR was measured using a paddle over stationary disc equipped dissolution apparatus with concentration determined using liquid chromatographic analysis against a standard. […] Form I has an IDR of 6.8 mg/cm^2/min in simulated gastric fluid (SGF) (pH 1.2) and an IDR of 0.44 mg/cm^2/min in pH 2.5 HCl/NaCl buffer. Form II has an IDR of 5.4 mg/cm^2/min in SGF and an IDR of 0.35 mg/cm^2/min in pH 2.5 HCl/NaCl buffer.

The nature of series [4]: Plasma exposure after single oral administration in fasted beagle dogs. The following applies: nine fasted beagle dogs, single oral administration of 6 mg/kg, oral capsule. It counts as in vivo. How it is done: The plasma exposure of Forms I and II of the free base of Formula (1) were compared in nine fasted beagle dogs after a single oral administration of 6 mg/kg of either form using batches with a similar particle size distribution. The experiment was performed in 5 weekly phases, with the Form II phase last. […] There was a good in vitro in vivo correlation for the dissolution rates of Form 1 and Form II, and the performance of each form of Formula (1) when delivered by oral capsule to dogs.

Series [5] is described as follows: Relative stability of solid forms (water activity, suspension equilibration, storage). The format is physicochemical. As to conditions: room temperature. An excerpt: Critical water activity is a measure of the relative thermodynamic stability of Form I in comparison to the trihydrate Form II. […] Suspension equilibration experiments in ethanol-water mixtures, each having a different water activity, affirmed this conclusion. Water activities included in the experiments were maintained at: about 0.35 (ethanol-water ratio of 95:5, PP502-P32), about 0.53 (ethanol-water ratio of 9:1, PP502-P33) and about 0.77 (ethanol-water ratio of 7:3, PP502-P34).
Because the DVS results of Form II indicate reversible moisture sorption-desorption behavior (see above), tests were performed to confirm that storage of the dehydrated Form II sample (i.e., Form IV) at about 60% RH would again lead to the trihydrate form (Form II). […]

A short description of series [6]: Aqueous solubility of salts after three hours equilibration without pH adjustment. The format is physicochemical. As to conditions: thermodynamic from solid, water. How it is done: Characterization of fumarate salt, maleate salt, phosphate salt and L-tartrate salt was conducted using ^1H NMR spectroscopy, TG-FTIR, DSC, dynamic vapor sorption, optical microscopy, high-performance liquid chromatography (HPLC) purity, laser diffraction, approximate bulk and tapped density, and aqueous solubility analytical techniques.

Series [7] in a line: Aqueous solubility of Formula (1) free base as a function of pH. It counts as physicochemical. An excerpt:
The aqueous solubility of Formula (1) free base was examined as a function of pH.

Series [8] is described as follows: pKa by ultraviolet (UV) spectrometric titration. It counts as physicochemical. As to conditions: for pKa: aqueous solution. How it is done:
The pKa values for Formula (1) free base were determined and used to create the speciation plot shown in FIG. 47 to illustrate the species present as the Formula (1) passes through the gastrointestinal tract. The sample pKa values were determined using an ultraviolet (UV) spectrometric technique. The sample was initially titrated in a fast-UV triple titration between pH 2-12 at concentrations of 31-19 μM, under aqueous conditions. Three pKa values, with average values of ˜3.6, ˜5.8 and ˜12.0, were determined. The sample was subsequently titrated in six titrations, under aqueous conditions over a total range of pH 1.5-12.5 at concentrations of 30-18 μM.

A short description of series [9]: logP by potentiometric (pH-metric) technique, octanol/water. It counts as physicochemical. As to conditions: 25° C., 0.15 M KCl. How it is done: The logP of Formula (1) free base was determined using the potentiometric (pH-metric) technique. The sample was titrated in various ratios of octanol/water from pH 1.9-12.1 at concentrations of 1.1-0.5 mM at 25° C. in an ionic environment of 0.15 M KCl. The potentiometric data collected were used to calculate the logP of the neutral (2.03±0.01) and the cationic (−0.31±0.06) species.

A short description of series [10]: Water content by Karl Fischer titration. The format is physicochemical.
The mark [11] stands for this setting: six titrations, pH 1.5-12.5, 30-18 μM, aqueous.

In the case of `CC#CC(=O)N1CCC[C@H]1c1nc(-c2ccc(C(=O)Nc3ccccn3)cc2)c2c(N)nccn12` [Form II, (S)-4-(8-amino-3-(1-(but-2-ynoyl)pyrrolidin-2-yl)imidazo[1,5-α]pyrazin-1-yl)-N-(pyridin-2-yl)benzamide], in series [1], the aqueous solubility entry is recorded as “approximately 14 μg/mL”. Also, in [2], the “maximum water content (saturation) at about 95% RH” value is “about 10.4%”; the “total weight gain observed between 0% RH and 80% RH” value is “about 10%”. Besides, the “hygroscopicity according to the European Pharmacopoeia (EP) classification” value in series [2] (weight increase at 80% RH) is “hygroscopic (hygroscopic: ≥2% and <15%)”. In addition, the “intrinsic dissolution rate (IDR)” value in series [3] (pH 2.5 HCl/NaCl buffer) came out at 0.35 mg/cm^2/min. Moreover, the “intrinsic dissolution rate (IDR)” value in series [3] (simulated gastric fluid (SGF) (pH 1.2)) is 5.4 mg/cm^2/min. Also, in [4], the “Cmax (maximum concentration)” value is reported as “lower Cmax (maximum concentration) than Form I in all dogs” and the “area under the plasma drug concentration-time curve (AUC)” value is listed as “lower AUC than Form I in all dogs”. Besides, the “critical water activity (aw)” value in series [5] (Form I versus trihydrate Form II, from aqueous solubilities) is “about 0.59”. Moreover, the “relative thermodynamic stability of Form I and Form II” value in series [5] (depending on water activity) is “above this value Form II is more stable”.

One may read the solubility as how much of the substance goes into solution per volume. As usually defined, the pKa is the pH at which an ionisable group is half protonated. What is called logP is the decadic logarithm of the partition coefficient of the neutral form, usually between octanol and water. Take `CC#CC(=O)N1CCC[C@H]1c1nc(-c2ccc(C(=O)Nc3ccccn3)cc2)c2c(N)nccn12` [Formula (1), (S)-4-(8-amino-3-(1-(but-2-ynoyl)pyrrolidin-2-yl)imidazo[1,5-α]pyrazin-1-yl)-N-(pyridin-2-yl)benzamide]: in [6], the solubility at 3 h was < 1000 µg/mL. The solubility in [7] (aqueous HCl solution, pH 1, simulated gastric fluid, thermodynamic from solid, HCl solution having a pH of about 1, read-out: solubility in HCl solution) was ≥ 150000 µg/mL; in series [7] (aqueous buffer solution, pH 5, aqueous buffer, thermodynamic from solid, effective pH at the end of the test 5.0, read-out: Solubility), 690 µg/mL; in [7] (aqueous buffer solution, pH 7.3, aqueous buffer, thermodynamic from solid, effective pH at the end of the test 7.3, read-out: Solubility), 49 µg/mL; in [7] (aqueous buffer solution, pH 8.9, aqueous buffer, thermodynamic from solid, effective pH at the end of the test 8.9, read-out: Solubility), 51 µg/mL; in series [7] (aqueous buffer solutions, aqueous buffer, thermodynamic from solid, pH 6.7 and greater, read-out: aqueous solubility, constant level), ~50 µg/mL; in [7] (effective pH at the end of the test 6.7), 56 µg/mL. Also, the “aqueous solubility, constant level” value in [7] (pH 6.7 and greater) is “about 50 μg/mL”. For the same molecule, the pKa in series [8] (free base, Table 9, read-out: pKa) is ~5.7; in series [8] (pH 1.5, six titrations, pH 1.5-12.5, 30-18 μM, aqueous, read-out: pKa, average value (third)), 12.12 ± 0.03; in series [8] (pH 2, fast-UV triple titration, pH 2-12, 31-19 μM, aqueous, read-out: pKa, average value (first)), ~3.6; in [8] (pH 2, fast-UV triple titration, pH 2-12, 31-19 μM, aqueous, read-out: pKa, average value (second)) it was ~5.8; in [8] (pH 2, fast-UV triple titration, pH 2-12, 31-19 μM, aqueous, read-out: pKa, average value (third)) it was ~12. Besides, the “pKa, average value (first)” value in series [8] (setting [11]) was 3.54±0.01. In [8] (setting [11]), the “pKa, average value (second)” value came out at 5.77±0.01. The “logP of the neutral species” value in [9] was found to be 2.03±0.01. Moreover, the logP in series [9] (read-out: logP of the cationic species) is -0.31 ± 0.06.

On to `CC#CC(=O)N1CCC[C@H]1c1nc(-c2ccc(C(=O)Nc3ccccn3)cc2)c2c(N)nccn12.O=S(=O)(O)O` [sulfate salt, (S)-4-(8-amino-3-(1-(but-2-ynoyl)pyrrolidin-2-yl)imidazo[1,5-α]pyrazin-1-yl)-N-(pyridin-2-yl)benzamide sulfate], for which the “water content (% found, experimental)” value in [10] is listed as 10.6%.
